Results taken from US20240400555A1 (Initial Therapeutics, Inc., priority 2023, published 2024).
Where two headings read alike, the source gives them in different places.

System: MV-4-11 cells
Assay: Cell Viability Assay in MV-4-11 Cells
Type: cell-based
Settings: Homo sapiens, MV4-11, 72 h
Method in brief: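 Luminescent ATP read-out (CellTiter-Glo) after 72 h compound treatment of MV-4-11 leukaemia cells (7,000 per well, IMDM plus 10% FBS). Values expressed relative to DMSO control and derived by four-parameter non-linear regression.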

[1] = MV-4-11 cells, 72 h, Cell-Titer Glo, read-out: IC50

IC50 [1] [nM]	SMILES	IC50 [nM]
29	CCn1cc(-c2ccc(C(=O)N(c3nccc4cc(OC)cc(C)c34)[C@@H]3CCCNC3)c(F)c2)nn1 [Example 863, 4-(1-ethyltriazol-4-yl)-2-fluoro-N-(6-methoxy-8-methyl-1-isoquinolyl)-N-[(3R)-3-piperidyl] benzamide]	–
480	CC(=O)Nc1ccc(-c2cc3c(N(C(=O)c4ccc(-c5cn(C)nn5)cc4F)[C@@H]4CCCNC4)nccc3s2)cc1 [Example 547, (R)—N-(2-(4-acetamidophenyl)thieno[3,2-c]pyridin-4-yl)-2-fluoro-4-(1-methyl-1H-1,2,3-triazol-4-yl)-N-(piperidin-3-yl)benzamide]	–
210	O=C(c1ccc(-n2nnc3cccnc32)cc1F)N(c1nccc2sc(-c3csc(CO)n3)cc12)[C@@H]1CCCNC1 [Example 427, 2-fluoro-N-[2-[2-(hydroxymethyl)thiazol-4-yl]thieno[3,2-c]pyridin-4-yl]-N-[(3R)-3-piperidyl]-4-(triazolo[4,5-b]pyridin-3-yl)benzamide]	–
> 10000	Cn1cc(-c2ccc(C(=O)N(c3cc(/C=C\CCO)ccn3)[C@@H]3CCCNC3)cc2)nn1 [Example 346, N-[4-[(Z)-4-hydroxybut-1-enyl]-2-pyridyl]-4-(1-methyltriazol-4-yl)-N-[(3R)-3-piperidyl] benzamide]	–
2000	Cc1cccc2ccnc(N(C(=O)N3CCCC(CCC(=O)Nc4ccc5[nH]ncc5c4)C3)[C@@H]3CCCNC3)c12 (stereo partly drawn) [Example 498, 3-(3-((1H-indazol-5-yl)amino)-3-oxopropyl)-N-(8-methylisoquinolin-1-yl)-N—((R)-piperidin-3-yl)piperidine-1-carboxamide]	–
69	Cc1cc(-c2cnn(C)c2)cc2ccnc(N(C(=O)c3ccc(-c4cn(C)nn4)cc3F)[C@@H]3CCCNC3)c12 [Example 845, 2-fluoro-N-[8-methyl-6-(1-methylpyrazol-4-yl)-1-isoquinolyl]-4-(1-methyltriazol-4-yl)-N-[(3R)-3-piperidyl]benzamide]	–
1300	O=C(NCCO)c1ccc2c(N(C(=O)c3ccc(-n4nnc5cccnc54)cc3F)[C@@H]3CCCNC3)nccc2c1 [Example 371, (R)-1-(4-(3H-[1,2,3]triazolo[4,5-b]pyridin-3-yl)-2-fluoro-N-(piperidin-3-yl)benzamido)-N-(2-hydroxyethyl) isoquinoline-6-carboxamide]	–
2100	Cn1cc(-c2ccc(C(=O)N(c3nccc4sc(-c5ccc(C(O)(C(F)(F)F)C(F)(F)F)cc5)cc34)[C@@H]3CCCNC3)c(F)c2)nn1 [Example 604, (R)-2-fluoro-N-(2-(4-(1,1,1,3,3,3-hexafluoro-2-hydroxypropan-2-yl)phenyl)thieno[3,2-c]pyridin-4-yl)-4-(1-methyl-1H-1,2,3-triazol-4-yl)-N-(piperidin-3-yl)benzamide]	–
200	CNC(=O)c1nc(-c2cc3c(N(C(=O)c4ccc(-n5nnc6cccnc65)cc4F)[C@@H]4CCCNC4)nccc3s2)cs1 [Example 527, 4-[4-[[2-fluoro-4-(triazolo[4,5-b]pyridin-3-yl)benzoyl]-[(3R)-3-piperidyl]amino]thieno[3,2-c]pyridin-2-yl]-N-methyl-thiazole-2-carboxamide]	–
> 10000	Cc1nc(-c2ccc(C(=O)N(c3nccc4cccc(C)c34)[C@@H]3CCCNC3)c(F)c2)c(N)[nH]1 [Example 389, 4-(5-amino-2-methyl-1H-imidazol-4-yl)-2-fluoro-N-(8-methyl-1-isoquinolyl)-N-[(3R)-3-piperidyl]benzamide]	–
40	[2H]C([2H])([2H])n1cc(-c2ccc(C(=O)N(c3nccc4cc(Cl)cc(C)c34)[C@@H]3CCCNC3)c(F)c2)nn1 [Example 893, N-(6-chloro-8-methyl-1-isoquinolyl)-2-fluoro-N-[(3R)-3-piperidyl]-4-[1-(trideuteriomethyl)triazol-4-yl]benzamide]	–
1600	O=C(c1ccc(-n2nnc3cccnc32)cc1F)N(c1nccc2cc(-c3nn[nH]c3CO)ccc12)[C@@H]1CCCNC1 [Example 530, (R)-4-(3H-[1,2,3]triazolo[4,5-b]pyridin-3-yl)-2-fluoro-N-(6-(5-(hydroxymethyl)-1H-1,2,3-triazol-4-yl)isoquinolin-1-yl)-N-(piperidin-3-yl)benzamide]	–
25	Cc1cc(C)c2c(N(C(=O)c3ccc(-c4cn(C)nn4)cc3F)[C@@H]3CCCNC3)nccc2c1 [Example 702, (R)—N-(6,8-dimethylisoquinolin-1-yl)-2-fluoro-4-(1-methyl-1H-1,2,3-triazol-4-yl)-N-(piperidin-3-yl)benzamide]	–
52	COc1cc(C)c2c(N(C(=O)c3ccc(-c4nnc(C)s4)cc3)[C@@H]3CCCNC3)nccc2c1 [Example 866, N-(6-methoxy-8-methyl-1-isoquinolyl)-4-(5-methyl-1,3,4-thiadiazol-2-yl)-N-[(3R)-3-piperidyl]benzamide]	–
420	Cc1ccc(Cl)c2ccnc(N(C(=O)c3ccc(-c4cn(C)nn4)cc3)[C@@H]3CCCNC3)c12 [Example 855, N-(5-chloro-8-methyl-1-isoquinolyl)-4-(1-methyltriazol-4-yl)-N-[(3R)-3-piperidyl]benzamide]	–
220	Cn1cc(-c2ccc(C(=O)N(c3nccc4sc(C#CCCCO)cc34)[C@@H]3CCCNC3)cc2O)cn1 [Example 476, 3-hydroxy-N-[2-(5-hydroxypent-1-ynyl)thieno[3,2-c]pyridin-4-yl]-4-(1-methylpyrazol-4-yl)-N-[(3R)-3-piperidyl] benzamide]	–
300	Cn1cc(-c2ccc(C(=O)N(c3nccc4sc(-c5cccnc5)cc34)[C@@H]3CCCNC3)c(F)c2)nn1 [Example 508, 2-fluoro-4-(1-methyltriazol-4-yl)-N-[(3R)-3-piperidyl]-N-[2-(3-pyridyl)thieno [3,2-c]pyridin-4-yl] benzamide]	–
–	NC(=O)/C=C/c1cccc2ccnc(N(C(=O)c3ccc(-n4nnc5cccnc54)cc3F)[C@@H]3CCCNC3)c12 [Example 320, N-[8-[(E)-3-amino-3-oxo-prop-1-enyl]-1-isoquinolyl]-2-fluoro-N-[(3R)-3-piperidyl]-4-(triazolo[4.5-b]pyridin-3-yl)benzamide]	5.6
75	COCCCc1nnc(-c2ccc(C(=O)N(c3nccc4cc(C)cc(C)c34)[C@@H]3CCCNC3)cn2)s1 [Example 904, N-(6,8-dimethyl-1-isoquinolyl)-6-[5-(3-methoxypropyl)-1,3,4-thiadiazol-2-yl]-N-[(3R)-3-piperidyl]pyridine-3-carboxamide]	–
780	Cc1cccc2ccnc(N(C(=O)c3ccc(Nc4nccc(CO)n4)cc3F)[C@@H]3CCCNC3)c12 [Example 321, (R)-2-fluoro-4-((4-(hydroxymethyl)pyrimidin-2-yl)amino)-N-(8-methylisoquinolin-1-yl)-N-(piperidin-3-yl)benzamide]	–
890	Cc1cccc2ccnc(N(C(=O)c3cccc(C#CCCCCO)c3)[C@@H]3CCCNC3)c12 [Example 514, (R)-3-(6-hydroxyhex-1-yn-1-yl)-N-(8-methylisoquinolin-1-yl)-N-(piperidin-3-yl)benzamide]	–
1300	Cc1nsc(-c2ccc(C(=O)N(c3nccc4scc(C)c34)[C@@H]3CCCNC3)c(F)c2)n1 [Example 779, (R)-2-fluoro-4-(3-methyl-1,2,4-thiadiazol-5-yl)-N-(3-methylthieno[3,2-c]pyridin-4-yl)-N-(piperidin-3-yl)benzamide]	–
–	C=C(C)c1csc2c(N(C(=O)c3ccc(-c4cn(C)nn4)cc3F)[C@@H]3CCCNC3)nccc12 [Example 675, 2-fluoro-N-(3-isopropenylthieno[2,3-c]703yridine-7-yl)-4-(1-methyltriazol-4-yl)-N-[(3R)-3-piperidyl]benzamide]	> 1000
140	Cc1nnc(-c2ccc(C(=O)N(c3nccc4cccc(C)c34)[C@@H]3CCCNC3)c(F)c2)o1 [Example 394, (R)-2-fluoro-4-(5-methyl-1,3,4-oxadiazol-2-yl)-N-(8-methylisoquinolin-1-yl)-N-(piperidin-3-yl)benzamide]	–
31	Cc1cccc2ccnc(N(C(=O)c3ccc(Nc4nccc(NC5CCOCC5)n4)cc3F)[C@@H]3CCCNC3)c12 [Example 954, (R)-2-fluoro-N-(8-methylisoquinolin-1-yl)-N-(piperidin-3-yl)-4-((4-((tetrahydro-2H-pyran-4-yl)amino)pyrimidin-2-yl)amino)benzamide]	–
300	N#Cc1ccc(-c2cc3c(N(C(=O)c4ccc(-n5nnc6cccnc65)cc4F)[C@@H]4CCCNC4)nccc3s2)cc1 [Example 387, N-[2-(4-cyanophenyl)thieno[3,2-c]pyridin-4-yl]-2-fluoro-N-[(3R)-3-piperidyl]-4-(triazolo[4,5-b]pyridin-3-yl)benzamide]	–
23	Cc1cccc2ccnc(N(C(=O)c3ccc(N4CCOCC4)cc3F)[C@@H]3CCCNC3)c12 [Example 311, (R)-2-fluoro-N-(8-methylisoquinolin-1-yl)-4-morpholino-N-(piperidin-3-yl)benzamide]	–
82	COCCN(C)c1ccnc(Nc2ccc(C(=O)N(c3nccc4cccc(C)c34)[C@@H]3CCCNC3)c(F)c2)n1 [Example 742, (R)-2-fluoro-4-((4-((2-methoxyethyl)(methyl)amino)pyrimidin-2-yl)amino)-N-(8-methylisoquinolin-1-yl)-N-(piperidin-3-yl)benzamide]	–
58	Cc1cc(-n2nnc3cccnc32)ccc1C(=O)N(c1nccc2cccc(C)c12)[C@@H]1CCCNC1 [Example 306, (R)-4-(3H-[1,2,3]triazolo[4,5-b]pyridin-3-yl)-2-methyl-N-(8-methylisoquinolin-1-yl)-N-(piperidin-3-yl)benzamide]	–
46	Cc1cccc2ccnc(N(C(=O)c3ccc(Nc4nccc(N5CCCOCC5)n4)cc3F)[C@@H]3CCCNC3)c12 [Example 944, (R)-4-(4-(1,4-oxazepan-4-yl)pyrimidin-2-ylamino)-2-fluoro-N-(8-methylisoquinolin-1-yl)-N-(piperidin-3-yl)benzamide]	–
